Measured values published in patent EP1192149B1, “1,4-DITHIIN AND 1,4-DITHIEPIN- 1,1,4,4, TETROXIDE DERIVATIVES USEFUL AS ANTAGONISTS OF THE HUMAN GALANIN RECEPTOR” (Ortho-McNeil Pharmaceutical, Inc., priority 1999, dated 2000).

target: T1, hGALR-1 (Homo sapiens, UniProt P47211); test: Human Galanin-1 Receptor Binding Assay (SPA, 125I human galanin displacement); conditions: membranes from human Bowes melanoma cells, Table I, formula (I) compounds, read-out: HGAL IC50
T1 construct: hGALR-1 that is contained in membranes from human Bowes melanoma cells; endogenous in cells; host or cells: human Bowes melanoma cells (membranes)
T1 sequence (P47211 1-349): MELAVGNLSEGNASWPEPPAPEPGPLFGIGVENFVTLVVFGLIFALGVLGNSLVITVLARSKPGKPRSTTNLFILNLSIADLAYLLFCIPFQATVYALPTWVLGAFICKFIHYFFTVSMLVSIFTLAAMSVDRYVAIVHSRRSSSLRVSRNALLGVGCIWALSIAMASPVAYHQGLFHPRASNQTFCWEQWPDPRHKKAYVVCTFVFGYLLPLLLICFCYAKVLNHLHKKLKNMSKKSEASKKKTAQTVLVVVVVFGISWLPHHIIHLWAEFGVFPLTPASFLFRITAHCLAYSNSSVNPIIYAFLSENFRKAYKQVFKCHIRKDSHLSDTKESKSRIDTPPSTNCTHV
Description: This assay determines the concentration (IC50) of a test compound which prevents 50% of galanin from binding to the hGALR-1 that is contained in membranes from human Bowes melanoma cells bound to wheat germ agglutinin conjugated Scintillation Proximity Assay (SPA) beads. The IC50 value is obtained by measuring the effect of half log increment dilutions of the test compound in duplicate using a 96-well plate (eight-rows, 12-columns).
The SPA beads (500 mg) were dissolved in 12.5 mL of assay buffer composed of 20mM DMSO-HEPES (pH 7.4), 0.1% bovine serum albumin, 2mM MgCl2, 2mM CaCl2, and protease inhibitors. Enough of this suspension for five plates (25 µL x 5 x 96 wells = 12000 µL) was dispensed into a 50 mL sterile Falcon tube. The amount of membranes required for five plates was then added (50µg x 5 x 96 wells), followed by 32.5 mL of 30% DMSO-HEPES buffer. The mixture was placed on a rotator and agitated for 0.5 hours and the non-specific binding sites on the beads were blocked by the addition of 5% [final] fetal bovine serum. Each well of the 96-well plate received 100 µL of this mixture.
To the control column (column 12) rows A and B was added 3.75 µL of a 300 µM solution of galantide in 30% DMSO-HEPES buffer, to rows C and D was added 3.75 µL of 30% DMSO-HEPES buffer and to rows E and F was added 3.75 µL of a 300 µM solution of galanin in 30% DMSO-HEPES buffer. In columns 1 through 11 were added solutions of the test compound in 30% DMSO-HEPES buffer starting at 30 µM and decreasing in concentration in half-log dilutions. A solution of radioactive ^125I human galanin (46.25 µL), prepared from 25 micro Curies of ^125I human galanin (2000 ci/mmol) and 500 µL of assay buffer, was added to each well. The plate was sealed with adhesive paper and incubated for 16 hr at room temperature before the quench-corrected bound radioactivity was measured in a Topcount® apparatus. For each dilution, the % inhibition of galanin binding was calculated as follows: Total binding (T) = Mean counts/minute (cpm) in row C and D in column 12 [formula] Non-specific binding (NSB) = Mean cpm in row E and F in column 12 [formula] Total specific binding (TS) = T-NSB [formula] cpm in each well = C [formula] net cpm in each well (N) = C-NSB [formula] % inhibition = 100%-N × 100%/TS [formula]
The IC50 values for each compound were calculated from the non-linear regression curve of the data using Prism® graphics software.

| IC50 [nM] | SMILES |
| --- | --- |
| 2700 | O=S1(=O)C=C(c2ccccc2)S(=O)(=O)CC1 [Cmpd 1] |
| 1000 | CCCCOc1ccc(C(=O)NC(Cc2ccccc2)C2=CS(=O)(=O)CCS2(=O)=O)cc1 (centres unmarked) [Cmpd 4] |

| SMILES | IC50 [nM] |
| --- | --- |
| NC(Cc1ccccc1)C1=CS(=O)(=O)CCS1(=O)=O (centres unmarked) [Cmpd 3] | 8000 |

same assay, conditions: membranes from human Bowes melanoma cells, Table II, formula (II) compounds, read-out: hGAL IC50

| SMILES | IC50 [nM] |
| --- | --- |
| O=S1(=O)C=C(c2ccccc2)S(=O)(=O)CCC1 [Cmpd 5] | 2700 |
| Cc1cccc(C2=CS(=O)(=O)CCCS2(=O)=O)c1 [Cmpd 6] | 1300 |
| COc1cccc(C2=CS(=O)(=O)CCCS2(=O)=O)c1 [Cmpd 7] | 910 |
| O=S1(=O)C=C(c2cccc(Cl)c2)S(=O)(=O)CCC1 [Cmpd 8] | 1000 |
| O=S1(=O)C=C(c2cccc(Br)c2)S(=O)(=O)CCC1 [Cmpd 9] | 890 |
| O=S1(=O)C=C(c2cccc(C(F)(F)F)c2)S(=O)(=O)CCC1 [Cmpd 11] | 600 |
| O=S1(=O)C=C(c2ccccc2Cl)S(=O)(=O)CCC1 [Cmpd 12] | 640 |
| O=S1(=O)C=C(c2ccc(Br)cc2)S(=O)(=O)CCC1 [Cmpd 13] | 260 |
| O=S1(=O)C=C(c2ccc(F)cc2)S(=O)(=O)CCC1 [Cmpd 14] | 410 |
| O=S1(=O)C=C(c2ccc(I)cc2)S(=O)(=O)CCC1 [Cmpd 17] | 710 |
| Cc1ccccc1C1=CS(=O)(=O)CCCS1(=O)=O [Cmpd 18] | 1600 |
| O=S1(=O)C=C(c2ccc(Oc3ccccc3)cc2)S(=O)(=O)CCC1 [Cmpd 19] | 410 |
| O=S1(=O)C=C(c2cccc(OC(F)(F)F)c2)S(=O)(=O)CCC1 [Cmpd 20] | 2700 |
| O=S1(=O)C=C(c2ccc(C(F)(F)F)cc2)S(=O)(=O)CCC1 [Cmpd 22] | 2100 |
| O=S1(=O)C=C(c2ccc(OC(F)(F)F)cc2)S(=O)(=O)CCC1 [Cmpd 23] | 490 |
| O=S1(=O)C=C(c2ccc(-c3ccccc3)cc2)S(=O)(=O)CCC1 [Cmpd 24] | 600 |

| SMILES | IC50 [nM] |
| --- | --- |
| O=S1(=O)C=C(c2ccc(C3CCCCC3)cc2)S(=O)(=O)CCC1 [Cmpd 25] | 1100 |
| CCc1ccc(C2=CS(=O)(=O)CCCS2(=O)=O)cc1 [Cmpd 26] | 430 |
| O=S1(=O)C=C(c2cccc(I)c2)S(=O)(=O)CCC1 [Cmpd 27] | 850 |
| CCOc1ccc(C2=CS(=O)(=O)CCCS2(=O)=O)cc1 [Cmpd 28] | 590 |
| O=S1(=O)C=C(c2ccccc2F)S(=O)(=O)CCC1 [Cmpd 29] | 430 |
| O=S1(=O)C=C(c2ccccc2Br)S(=O)(=O)CCC1 [Cmpd 30] | 570 |
| O=S1(=O)C=C(c2ccccc2C(F)(F)F)S(=O)(=O)CCC1 [Cmpd 31] | 580 |
| COc1ccccc1C1=CS(=O)(=O)CCCS1(=O)=O [Cmpd 32] | 1000 |
| O=C(Oc1ccccc1)c1cccc(C2=CS(=O)(=O)CCCS2(=O)=O)c1 [Cmpd 33] | 440 |
| CCOC(=O)c1ccc(C2=CS(=O)(=O)CCCS2(=O)=O)cc1 [Cmpd 34] | 1000 |
| O=S1(=O)C=C(c2ccc(S(=O)(=O)c3ccccc3)cc2)S(=O)(=O)CCC1 [Cmpd 35] | 1580 |
| CCCNC(=O)c1ccc(C2=CS(=O)(=O)CCCS2(=O)=O)cc1 [Cmpd 36] | 1040 |
| O=S1(=O)C=C(c2cccc3ccccc23)S(=O)(=O)CCC1 [Cmpd 37] | 371 |
| O=C(NCCc1ccccc1)c1ccc(C2=CS(=O)(=O)CCCS2(=O)=O)cc1 [Cmpd 38] | 1060 |
| O=S1(=O)C=C(c2cccs2)S(=O)(=O)CCC1 [Cmpd 40] | 1300 |
| O=S1(=O)C=C(c2ccsc2)S(=O)(=O)CCC1 [Cmpd 41] | 1300 |

target: T2, Rat Galanin-1 Receptor (Rattus norvegicus, UniProt Q62805); test: Galanin-1 receptor mediated inhibition of acetylcholine release from rat brain cortical slices (superfusion, K+-evoked [3H]acetylcholine efflux); conditions: 1 µM+GAL
T2 construct: Rat brain cerebrocortical tissues were chopped into slices; from tissue; host or cells: rat brain cerebrocortical slices
T2 sequence (Q62805 1-346): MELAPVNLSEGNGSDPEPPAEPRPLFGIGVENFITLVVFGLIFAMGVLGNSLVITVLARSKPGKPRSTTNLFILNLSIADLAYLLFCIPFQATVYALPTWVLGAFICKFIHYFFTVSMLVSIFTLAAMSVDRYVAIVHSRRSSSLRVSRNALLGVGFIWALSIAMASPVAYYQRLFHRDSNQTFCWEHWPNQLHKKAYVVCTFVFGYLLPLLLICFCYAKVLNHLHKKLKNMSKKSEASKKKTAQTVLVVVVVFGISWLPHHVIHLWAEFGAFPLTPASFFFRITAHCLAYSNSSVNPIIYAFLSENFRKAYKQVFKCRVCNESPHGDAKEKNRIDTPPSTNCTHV
Description: Rat brain cerebrocortical tissues were chopped into slices of 300 x 300 x […] using a Mcllwain tissue chopper. The slices were washed and incubated at 37°C for 30 min in Krebs-Ringer solution: NaCl 118 mM, KCI 4.8 mM, CaCl2 1.3 mM, KH2PO4 1.2 mM, MgSO4 1.2 mM, NaHCO3, 25 mM, glucose […], ascorbic acid […] (previously aerated for 10 min with 95% O2/5% CO2 to obtain a pH of 7.4) and 0.1 µM [Methyl-^3H]choline chloride (85 Ci/mmol, Amersham Life Sciences, Arlington Heights, IL). After incubation, the slices were washed three times with ice-cold physiological solution and resuspended in 6 ml of cold solution. Equal aliquots of the tissue suspension were placed in each of 6 parallel superfusion chambers (Hugo Sachs Elektronik, March-Hugstetten, Germany). A circular piece of nylon mesh (pore size 250 um) was placed just below each chamber outlet in order to prevent the loss of tissue. The chambers were perfused against gravity with oxygenated Krebs-Ringer containing 1 mM physostigmine hemisulfate at a flow rate of 1 ml/min. At the concentration used, physostigmine had no effect on the release of total radioactivity from tissue slices. The onset of superfusion was defined as time zero (t0). Starting at 30 min after t0, 10 min fractions of the effluent were collected.
Release of [^3H]acetylcholine was induced by superfusing tissues for 30 sec with 65mM K^+-Krebs-Ringer solution (made by isomolar replacement of NaCl with KCI). Four potassium pulses were given respectively at 40 min (S1), 70 min (S2), 100 min (S3) and 130 min (S4) after to. No significant deterioration in fractional release was observed during the 4 consecutive stimuli. […] To permit construction of concentration-effect curves, concentrations of agents were increased 10 fold between each stimulus.
Following perfusion, the tissue was homogenized in 1 ml ethanol and aliquots of superfusates (0.4ml) and tissue homogenates (0.04ml) were added to 5 ml of Scintsafe PlusTM 50% (Fisher Scientific, Pittsburgh, PA) and radioactivity counted by liquid scintillation spectrometry. The total ^3H content in this procedure consisted mainly of [^3H]acetylcholine.
Tritium (^3H) efflux into the superfusate was calculated as the fraction of tritium content in the slices or synaptosomes at the onset of the respective collection period. For calculation of the stimulated tritium overflow, the estimated basal efflux (the average of the 10 min fractions immediately before and after each stimulation) was subtracted from the total tritium efflux during the 10 min fraction which began with the 30 sec K^+ pulse. This difference was then used to calculate the percent of K^+-evoked release of acetylcholine.
In order to quantify the in vitro effect of a drug on stimulated tritium outflow, the ratio of the fraction released by a given pulse, Sn, to that evoked by S1, was determined. Data presented below are expressed as the mean fractional tritium release ± S.E.M. Statistical differences between treatments were tested by the two-tailed Student's t test or the two factor ANOVA as appropriate. Individual differences in the dose-response curve was evaluated by the Newman-Keul multiple comparison.

| SMILES | Acetycholine Secretion Basal (change vs Control) [%] |
| --- | --- |
| O=S1(=O)C=C(c2cccc(F)c2)S(=O)(=O)CCC1 [Cmpd 16] | -38.9 |
| O=S1(=O)C=C(c2ccc(I)cc2)S(=O)(=O)CCC1 [Cmpd 17] | -39.2 |

same assay, conditions: 1 µM+GAL; K+-evoked

| SMILES | Acetycholine Secretion Stimulated (change vs Control) [%] |
| --- | --- |
| O=S1(=O)C=C(c2cccc(F)c2)S(=O)(=O)CCC1 [Cmpd 16] | -23.9 |
| O=S1(=O)C=C(c2ccc(I)cc2)S(=O)(=O)CCC1 [Cmpd 17] | -35.2 |

same assay, conditions: 1 µM+GAL; K+-evoked; mean fractional tritium release

| SMILES | Acetycholine Secretion Stimulated |
| --- | --- |
| O=S1(=O)C=C(c2ccc(I)cc2)S(=O)(=O)CCC1 [Cmpd 17] | 5.37 |

same assay, conditions: 1 µM+GAL; mean fractional tritium release

| SMILES | Acetycholine Secretion Basal |
| --- | --- |
| O=S1(=O)C=C(c2cccc(F)c2)S(=O)(=O)CCC1 [Cmpd 16] | 2.20 |
| O=S1(=O)C=C(c2ccc(I)cc2)S(=O)(=O)CCC1 [Cmpd 17] | 2.19 |

same assay, conditions: 10 µM+GAL

| SMILES | Acetycholine Secretion Basal (change vs Control) [%] |
| --- | --- |
| O=S1(=O)C=C(c2cccc(F)c2)S(=O)(=O)CCC1 [Cmpd 16] | -37 |
| O=S1(=O)C=C(c2ccc(I)cc2)S(=O)(=O)CCC1 [Cmpd 17] | -37 |

same assay, conditions: 10 µM+GAL; K+-evoked

| SMILES | Acetycholine Secretion Stimulated (change vs Control) [%] |
| --- | --- |
| O=S1(=O)C=C(c2ccc(I)cc2)S(=O)(=O)CCC1 [Cmpd 17] | -22.3 |

same assay, conditions: 10 µM+GAL; K+-evoked; mean fractional tritium release

| SMILES | Acetycholine Secretion Stimulated |
| --- | --- |
| O=S1(=O)C=C(c2ccc(I)cc2)S(=O)(=O)CCC1 [Cmpd 17] | 6.44 |

same assay, conditions: 10 µM+GAL; mean fractional tritium release

| SMILES | Acetycholine Secretion Basal |
| --- | --- |
| O=S1(=O)C=C(c2ccc(I)cc2)S(=O)(=O)CCC1 [Cmpd 17] | 2.27 |
